target: influenza A virus minigenome (PB2, PB1, PA, NP proteins) (UniProt P04665); format: cell-based; settings: read-out: RNP_ Hubei B IC50
Sequence (P04665 whole entry): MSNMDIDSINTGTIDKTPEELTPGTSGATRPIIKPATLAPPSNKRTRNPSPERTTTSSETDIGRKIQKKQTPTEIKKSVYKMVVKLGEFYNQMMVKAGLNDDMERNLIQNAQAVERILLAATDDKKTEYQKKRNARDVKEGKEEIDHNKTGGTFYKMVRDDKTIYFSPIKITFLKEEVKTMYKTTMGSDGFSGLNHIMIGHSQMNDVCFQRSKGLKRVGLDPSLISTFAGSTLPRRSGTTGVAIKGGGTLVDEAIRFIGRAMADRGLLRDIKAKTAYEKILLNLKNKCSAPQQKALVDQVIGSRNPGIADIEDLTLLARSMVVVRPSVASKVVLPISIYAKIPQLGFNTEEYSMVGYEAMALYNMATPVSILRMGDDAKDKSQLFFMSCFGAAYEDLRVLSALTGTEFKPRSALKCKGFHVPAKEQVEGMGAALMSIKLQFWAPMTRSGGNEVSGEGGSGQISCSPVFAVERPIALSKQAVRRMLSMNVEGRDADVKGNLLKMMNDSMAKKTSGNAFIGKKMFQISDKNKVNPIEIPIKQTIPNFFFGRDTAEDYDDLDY

Row | SMILES | IC50 [µM]
1 | CCN1CC(COc2ccc(-c3cc(C(N)=O)c(=O)[nH]c3C(F)(F)F)cc2)OC1=O (stereo not drawn) [Example 234, 5-(4-((3-ethyl-2-oxooxazolidin-5-yl)methoxy)phenyl)-2-oxo-6-(trifluoromethyl)-1,2-dihydropyridine-3-carboxamide] | 25 to 50
2 | CN1C(=O)OCC1COc1ccc(-c2cc(C(N)=O)c(=O)[nH]c2C(F)(F)F)cc1 (stereo not drawn) [Example 235, 5-(4-((3-methyl-2-oxooxazolidin-4-yl)methoxy)phenyl)-2-oxo-6-(trifluoromethyl)-1,2-dihydropyridine-3-carboxamide] | 25 to 50
3 | NC(=O)c1cc(-c2ccc(OCC3CCCCO3)cc2)c(C(F)(F)F)[nH]c1=O (stereo not drawn) [Example 236, 2-oxo-5-(4-((tetrahydro-2H-pyran-2-yl)methoxy)phenyl)-6-(trifluoromethyl)-1,2-dihydropyridine-3-carboxamide] | 5 to 10
4 | NC(=O)c1cc(-c2ccc(OCC3COCCO3)c(F)c2)c(C(F)(F)F)[nH]c1=O (stereo not drawn) [Example 239, 5-(4-((1,4-dioxan-2-yl)methoxy)-3-fluorophenyl)-2-oxo-6-(trifluoromethyl)-1,2-dihydropyridine-3-carboxamide] | 10 to 25
5 | NC(=O)c1cc(-c2ccc(OCC3COCCO3)c(C3CC3)c2)c(C(F)(F)F)[nH]c1=O (stereo not drawn) [Example 243, 5-(4-((1,4-dioxan-2-yl)methoxy)-3-cyclopropylphenyl)-2-oxo-6-(trifluoromethyl)-1,2-dihydropyridine-3-carboxamide] | 1 to 5
6 | CN1CCOCC1COc1ccc(-c2cc(C(N)=O)c(=O)[nH]c2C(F)(F)F)cc1 (stereo not drawn) [Example 247, 5-(4-((4-methylmorpholin-3-yl)methoxy)phenyl)-2-oxo-6-(trifluoromethyl)-1,2-dihydropyridine-3-carboxamide] | 25 to 50
7 | NC(=O)c1cc(-c2ccc(OCC3COCCN3C3CC3)cc2)c(C(F)(F)F)[nH]c1=O (stereo not drawn) [Example 248, 5-(4-((4-cyclopropylmorpholin-3-yl)methoxy)phenyl)-2-oxo-6-(trifluoromethyl)-1,2-dihydropyridine-3-carboxamide] | 5 to 10
8 | CCN1CCOCC1COc1ccc(-c2cc(C(N)=O)c(=O)[nH]c2C(F)(F)F)cc1 (stereo not drawn) [Example 249, 5-(4-((4-ethylmorpholin-3-yl)methoxy)phenyl)-2-oxo-6-(trifluoromethyl)-1,2-dihydropyridine-3-carboxamide] | 5 to 10
9 | NC(=O)c1cc(-c2ccc(OCC3COCC(=O)N3)cc2)c(C(F)(F)F)[nH]c1=O (stereo not drawn) [Example 250, 2-oxo-5-(4-((5-oxomorpholin-3-yl)methoxy)phenyl)-6-(trifluoromethyl)-1,2-dihydropyridine-3-carboxamide] | 25 to 50
10 | COCCOc1ccc(-c2cc(C(N)=O)c(=O)[nH]c2C(F)(F)F)cc1 [Example 254, 5-(4-(2-methoxyethoxy)phenyl)-2-oxo-6-(trifluoromethyl)-1,2-dihydropyridine-3-carboxamide] | 25 to 50
11 | NC(=O)c1cc(-c2ccc(OCCN3CCOC3=O)cc2)c(C(F)(F)F)[nH]c1=O [Example 257, 2-oxo-5-(4-(2-(2-oxooxazolidin-3-yl)ethoxy)phenyl)-6-(trifluoromethyl)-1,2-dihydropyridine-3-carboxamide] | 25 to 50
12 | CCc1cc(COc2ccc(-c3cc(C(N)=O)c(=O)[nH]c3C(F)(F)F)cc2)n(C)n1 [Example 262, 5-(4-((3-ethyl-1-methyl-1H-pyrazol-5-yl)methoxy)phenyl)-2-oxo-6-(trifluoromethyl)-1,2-dihydropyridine-3-carboxamide] | 25 to 50
13 | Cn1nc(C2CC2)cc1COc1ccc(-c2cc(C(N)=O)c(=O)[nH]c2C(F)(F)F)cc1 [Example 263, 5-(4-((3-cyclopropyl-1-methyl-1H-pyrazol-5-yl)methoxy)phenyl)-2-oxo-6-(trifluoromethyl)-1,2-dihydropyridine-3-carboxamide] | 25 to 50
14 | NC(=O)c1cc(-c2ccc(OCc3ccnn3CC3CC3)cc2)c(C(F)(F)F)[nH]c1=O [Example 265, 5-(4-((1-(cyclopropylmethyl)-1H-pyrazol-5-yl)methoxy)phenyl)-2-oxo-6-(trifluoromethyl)-1,2-dihydropyridine-3-carboxamide] | 25 to 50
15 | NC(=O)c1cc(-c2ccc(OCc3cocn3)cc2)c(C(F)(F)F)[nH]c1=O [Example 266, 5-(4-(oxazol-4-ylmethoxy)phenyl)-2-oxo-6-(trifluoromethyl)-1,2-dihydropyridine-3-carboxamide] | 25 to 50
16 | NC(=O)c1cc(-c2ccc(OCc3cnco3)cc2)c(C(F)(F)F)[nH]c1=O [Example 267, 5-(4-(oxazol-5-ylmethoxy)phenyl)-2-oxo-6-(trifluoromethyl)-1,2-dihydropyridine-3-carboxamide] | 25 to 50
17 | NC(=O)c1cc(-c2ccc(OCc3cc(C4CC4)on3)cc2)c(C(F)(F)F)[nH]c1=O [Example 268, 5-(4-((5-cyclopropylisoxazol-3-yl)methoxy)phenyl)-2-oxo-6-(trifluoromethyl)-1,2-dihydropyridine-3-carboxamide] | 25 to 50

Row | SMILES | IC50 [µM]
18 | Cc1oncc1COc1ccc(-c2cc(C(N)=O)c(=O)[nH]c2C(F)(F)F)cc1 [Example 269, 5-(4-((5-methylisoxazol-4-yl)methoxy)phenyl)-2-oxo-6-(trifluoromethyl)-1,2-dihydropyridine-3-carboxamide] | 25 to 50
19 | Cc1onc(-c2ccncc2)c1COc1ccc(-c2cc(C(N)=O)c(=O)[nH]c2C(F)(F)F)cc1 [Example 270, 5-(4-((5-methyl-3-(pyridin-4-yl)isoxazol-4-yl)methoxy)phenyl)-2-oxo-6-(trifluoromethyl)-1,2-dihydropyridine-3-carboxamide] | 25 to 50
20 | Cc1ncc(COc2ccc(-c3cc(C(N)=O)c(=O)[nH]c3C(F)(F)F)cc2)s1 [Example 271, 5-(4-((2-methylthiazol-5-yl)methoxy)phenyl)-2-oxo-6-(trifluoromethyl)-1,2-dihydropyridine-3-carboxamide] | 25 to 50
21 | Cc1ncsc1COc1ccc(-c2cc(C(N)=O)c(=O)[nH]c2C(F)(F)F)cc1 [Example 272, 5-(4-((4-methylthiazol-5-yl)methoxy)phenyl)-2-oxo-6-(trifluoromethyl)-1,2-dihydropyridine-3-carboxamide] | 25 to 50
22 | Cc1nnsc1COc1ccc(-c2cc(C(N)=O)c(=O)[nH]c2C(F)(F)F)cc1 [Example 273, 5-(4-((4-methyl-1,2,3-thiadiazol-5-yl)methoxy)phenyl)-2-oxo-6-(trifluoromethyl)-1,2-dihydropyridine-3-carboxamide] | 10 to 25
23 | Cc1cncc(COc2ccc(-c3cc(C(N)=O)c(=O)[nH]c3C(F)(F)F)cc2)n1 [Example 283, 5-(4-((6-methylpyrazin-2-yl)methoxy)phenyl)-2-oxo-6-(trifluoromethyl)-1,2-dihydropyridine-3-carboxamide] | 5 to 10
24 | NC(=O)c1cc(-c2ccc(OCc3cnc4ccccn34)cc2)c(C(F)(F)F)[nH]c1=O [Example 286, 5-(4-(imidazo[1,2-a]pyridin-3-ylmethoxy)phenyl)-2-oxo-6-(trifluoromethyl)-1,2-dihydropyridine-3-carboxamide] | 25 to 50
25 | CC1(C)CC[C@@H](COc2ccc(-c3cc(C(N)=O)c(=O)[nH]c3C(F)(F)F)cc2)O1 [Example 300, (S)-5-(4-((5,5-dimethyltetrahydrofuran-2-yl)methoxy)phenyl)-2-oxo-6-(trifluoromethyl)-1,2-dihydropyridine-3-carboxamide] | 10 to 25
26 | CC(C)(C)OC(=O)N1CCC(COc2ccc(-c3cc(C(N)=O)c(=O)[nH]c3C(F)(F)F)cc2)C1 (stereo not drawn) [Example 302, Tert-butyl 3-((4-(5-carbamoyl-6-oxo-2-(trifluoromethyl)-1,6-dihydropyridin-3-yl)phenoxy)methyl)pyrrolidine-1-carboxylate] | 25 to 50
27 | CC1CN(C(=O)OC(C)(C)C)CC1COc1ccc(-c2cc(C(N)=O)c(=O)[nH]c2C(F)(F)F)cc1 (stereo not drawn) [Example 303, Tert-butyl 3-((4-(5-carbamoyl-6-oxo-2-(trifluoromethyl)-1,6-dihydropyridin-3-yl)phenoxy)methyl)-4-methylpyrrolidine-1-carboxylate] | 10 to 25
28 | CC(C)(C)OC(=O)N1C[C@H](F)C[C@H]1COc1ccc(-c2cc(C(N)=O)c(=O)[nH]c2C(F)(F)F)cc1 [Example 305, Tert-butyl (2S,4R)-2-((4-(5-carbamoyl-6-oxo-2-(trifluoromethyl)-1,6-dihydropyridin-3-yl)phenoxy)methyl)-4-fluoropyrrolidine-1-carboxylate] | 25 to 50
29 | CC(C)(C)OC(=O)N1C[C@@H](F)C[C@H]1COc1ccc(-c2cc(C(N)=O)c(=O)[nH]c2C(F)(F)F)cc1 [Example 306, tert-butyl (2S,4S)-2-((4-(5-carbamoyl-6-oxo-2-(trifluoromethyl)-1,6-dihydropyridin-3-yl)phenoxy)methyl)-4-fluoropyrrolidine-1-carboxylate] | 5 to 10
30 | NC(=O)c1cc(-c2ccc(OCC3COCCOC3)cc2)c(C(F)(F)F)[nH]c1=O [Example 320, 5-(4-((1,4-dioxepan-6-yl)methoxy)phenyl)-2-oxo-6-(trifluoromethyl)-1,2-dihydropyridine-3-carboxamide] | 5 to 10
31 | CC1(COc2ccc(-c3cc(C(N)=O)c(=O)[nH]c3C(F)(F)F)cc2)COCCOC1 [Example 321, 5-(4-((6-methyl-1,4-dioxepan-6-yl)methoxy)phenyl)-2-oxo-6-(trifluoromethyl)-1,2-dihydropyridine-3-carboxamide] | 5 to 10
32 | NC(=O)c1cc(-c2ccc(OC[C@H]3COC[C@@H](C4CC4)O3)cc2)c(C(F)(F)F)[nH]c1=O [Example 325, 5-(4-(((2R,6R)-6-cyclopropyl-1,4-dioxan-2-yl)methoxy)phenyl)-2-oxo-6-(trifluoromethyl)-1,2-dihydropyridine-3-carboxamide] | 10 to 25
33 | NC(=O)c1cc(-c2ccc(OC[C@H]3COC[C@H](C4CC4)O3)cc2)c(C(F)(F)F)[nH]c1=O [Example 327, 5-(4-(((2R,6S)-6-cyclopropyl-1,4-dioxan-2-yl)methoxy)phenyl)-2-oxo-6-(trifluoromethyl)-1,2-dihydropyridine-3-carboxamide] | 5 to 10

From US20240360082A1, “SUBSTITUTED PYRIDONE COMPOUNDS USEFUL TO TREAT ORTH[…]” (priority 2021, published 2024)
